Laboratory results reported in patent US10287300B2 (Merck Patent GmbH, priority 2012, dated 2019).

How the values were obtained:
His-AKT (Full Length) = His-AKT (Full Length) (Homo sapiens (Human), UniProt P31749); test: AKT enzyme assay; format: biochemical; conditions: 160 uM ATP, 90 min at 25° C.
Method: A TTP Mosquito liquid handling instrument was used to place 125 nl of the appropriate concentration of inhibitor in 100% DMSO (for a dose response curve calculation) into each well of a 384-well plate. To this reaction components were added to a final volume of 12.5 μl: • 0.1 ng/μl His-AKT (Full Length), (Invitrogen, Part # P2999, Lot #641228C). • 160 uM ATP (Fluka, 02055) • 1 mM DTT (Sigma, D0632) • 1 mM MgCl2 (Sigma, M1028) • 1 μM substrate peptide (sequence FITC-AHA-GRPRTSSFAEG-NH2), • synthesized by Tufts Peptide Synthesis service. • 100 mM HEPES pH 7.5 (Calbiochem, 391338) • 0.015% Brij-35 (Sigma, B4184)
The reaction was incubated for 90 min at 25° C., and then stopped by the addition of 70 μl of Stop buffer (100 mM HEPES pH 7.5, 0.015% Brij-35, 10 mM EDTA (Sigma, E7889)).
The plate was read on a Caliper LC 3000 in an Off-Chip mobility shift assay format, using the following parameters for a 12-sipper chip: screening pressure −2.3 psi, upstream voltage −500, and downstream voltage −3000. These conditions caused unphosphorylated substrate and phosphorylated product peptide to resolve as separate peaks allowing direct measurement of percentage of conversion of substrate to product. The percent conversion was plotted against concentration of inhibitor to produce a sigmoidal dose response curve, from which an IC50 was calculated.

[1] = molecular target: P70S6K (T412E mutant, Millipore) (Homo sapiens (Human), UniProt P23443, T412E); test: P70S6K enzyme assay; format: biochemical; conditions: 24 μM ATP, 90 min at 25° C.
Method: P70S6K inhibitor compounds were diluted and plated in 96 well plates. A reaction mixture including the following components was then added to the compound plate to initiate the enzyme reaction; P70S6K (3 nM, T412E mutant, Millipore) was mixed with 24 μM ATP in an assay buffer containing 100 mM Hepes (pH 7.5), 5 mM MgCl2, 1 mM DTT, 0.015% Brij and 1 μM of the substrate peptide FITC-AHA-AKRRRLSSLRA-OH (derived from the S6 ribosomal protein sequence, FITC=fluorescein isothiocyanate, AHA=6-aminohexanoic acid). The reaction was incubated for 90 min at 25° C., before the addition of 10 mM EDTA to stop the reaction. The proportion of substrate and product (phosphorylated) peptide was analysed on a Caliper Life Sciences Lab Chip 3000, using a pressure of −1.4 psi, and upstream and downstream voltages of −3000 and −700 respectively. Product peaks were resolved before substrate peaks on the resulting chromatograms.

P70S6K (T412E mutant, Millipore), sequence (P23443 whole entry T412E): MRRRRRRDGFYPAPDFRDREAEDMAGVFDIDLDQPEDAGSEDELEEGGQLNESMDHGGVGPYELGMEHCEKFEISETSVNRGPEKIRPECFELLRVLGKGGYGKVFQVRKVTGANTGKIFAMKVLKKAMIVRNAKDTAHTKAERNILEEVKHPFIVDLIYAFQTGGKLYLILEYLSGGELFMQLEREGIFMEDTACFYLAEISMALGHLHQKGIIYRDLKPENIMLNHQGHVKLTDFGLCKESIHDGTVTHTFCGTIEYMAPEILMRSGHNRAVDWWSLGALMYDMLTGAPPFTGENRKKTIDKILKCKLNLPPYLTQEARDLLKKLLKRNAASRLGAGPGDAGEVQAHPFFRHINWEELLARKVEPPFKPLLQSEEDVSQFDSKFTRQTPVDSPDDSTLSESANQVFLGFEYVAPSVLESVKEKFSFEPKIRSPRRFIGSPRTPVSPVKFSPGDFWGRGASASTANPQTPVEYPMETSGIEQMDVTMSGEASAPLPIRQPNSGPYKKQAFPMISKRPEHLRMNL
His-AKT (Full Length), sequence (P31749 whole entry): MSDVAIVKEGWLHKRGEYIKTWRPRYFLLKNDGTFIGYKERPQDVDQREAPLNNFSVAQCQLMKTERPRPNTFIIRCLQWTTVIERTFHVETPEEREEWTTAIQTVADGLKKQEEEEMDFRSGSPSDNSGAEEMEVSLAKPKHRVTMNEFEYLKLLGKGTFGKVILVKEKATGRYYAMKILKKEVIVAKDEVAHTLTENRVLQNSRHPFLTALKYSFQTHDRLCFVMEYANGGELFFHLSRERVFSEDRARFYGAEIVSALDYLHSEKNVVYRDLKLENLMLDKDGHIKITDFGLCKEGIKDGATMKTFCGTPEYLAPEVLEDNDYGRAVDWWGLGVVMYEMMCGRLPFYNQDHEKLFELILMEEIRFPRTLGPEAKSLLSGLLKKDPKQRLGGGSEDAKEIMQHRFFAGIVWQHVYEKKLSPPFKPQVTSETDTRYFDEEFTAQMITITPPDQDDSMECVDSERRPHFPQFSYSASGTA

SMILES	IC50 (His-AKT (Full Length))	IC50 [1]
CN(C)CC(c1ccc(C(F)(F)F)c(F)c1)N1CCN(c2ncnc3c2CCCN3)CC1 (stereo not drawn) [Compound A19, {2-(3-Fluoro-4-trifluoromethyl-phenyl)-2-[4-(5,6,7,8-tetrahydro-pyrido[2,3-d]pyrimidin-4-yl)-piperazin-1-yl]-ethyl}-dimethylamine]	0.025 to 0.1 µM	0.025 to 0.1 µM
NCC(c1ccc(F)cc1)N1CCN(c2ncnc3c2CCN3)CC1 (stereo not drawn) [Compound A14, 2-[4-(6,7-Dihydro-5H-pyrrolo[2,3-d]pyrimidin-4-yl)-piperazin-1-yl]-2-(4-fluorophenyl)-ethylamine]	0.501 to 1 µM	0.501 to 1 µM
CN(C)CC(c1ccc(Cl)c(F)c1)N1CCN(c2ncnc3c2CCN3)CC1 (stereo not drawn) [Compound A15, {2-(4-Chloro-3-fluoro-phenyl)-2-[4-(6,7-dihydro-5H-pyrrolo[2,3-d]pyrimidin-4-yl)-piperazin-1-yl]ethyl}-dimethylamine]	0.101 to 0.5 µM	0.101 to 0.5 µM
NCC(c1ccc(C(F)(F)F)cc1)N1CCN(c2ncnc3c2OCCN3)CC1 (stereo not drawn) [Compound A10, 2-[4-(7,8-Dihydro-6H-pyrimido[5,4-b][1,4]oxazin-4-yl)-piperazin-1-yl]-2-(4-trifluoromethylphenyl)-ethylamine]	0.101 to 0.5 µM	0.501 to 1 µM
CN(C)CC(c1ccc(Cl)cc1)N1CCN(c2ncnc3c2NC(=O)CN3)CC1 (stereo not drawn) [Compound A26, 4-{4-[2-dimethylamino-1-(4-chloro-phenyl)-ethyl]-piperazin-1-yl}-7,8-dihydro-5H-pteridin-6-one]	0.101 to 0.5 µM	0.501 to 1 µM
CN(C)CCNCC(c1cccc(C(F)(F)F)c1)N1CCN(c2ncnc3c2NC(=O)CN3)CC1 (stereo not drawn) [Compound A64, 4-(4-(2-((2-(dimethylamino)ethyl)amino)-1-(3-(trifluoromethyl)phenyl)-ethyl)piperazin-1-yl)-7,8-dihydropteridin-6(5H)-one]	> 1 µM	> 1 µM
NCC(c1ccc(C(F)(F)F)cc1)C1CCN(c2ccnc3c2CCCN3)CC1 (stereo not drawn) [Compound A1, 2-(1-(5,6,7,8-tetrahydro-1,8-naphthyridin-4-yl)piperidin-4-yl)-2-(4-(trifluoromethyl)phenyl)ethanamine]	0.101 to 0.5 µM	0.025 to 0.1 µM
CN(C)CC(c1ccc(C(F)(F)F)c(F)c1)N1CCN(c2ncnc3c2CCN3)CC1 (stereo not drawn) [Compound A20, [2-[4-(6,7-Dihydro-5H-pyrrolo[2,3-d]pyrimidin-4-yl)-piperazin-1-yl]-2-(3-fluoro-4-trifluoromethyl-phenyl)-ethyl]-dimethylamine]	0.025 to 0.1 µM	0.101 to 0.5 µM
NCC(c1ccc(C(F)(F)F)cc1)C1CCN(c2ncnc3c2CCCN3)CC1 (stereo not drawn) [Compound A22, 2-[1-(5,6,7,8-Tetrahydro-pyrido[2,3-d]pyrimidin-4-yl)-piperidin-4-yl]-2-(4-trifluoromethyl-phenyl)-ethylamine]	0.025 to 0.1 µM	0.101 to 0.5 µM
CN(C)CC(c1cccc(F)c1)N1CCN(c2ncnc3c2NC(=O)CN3)CC1 (stereo not drawn) [Compound A25, 4-{4-[2-dimethylamino-1-(3-fluoro-phenyl)-ethyl]-piperazin-1-yl}-7,8-dihydro-5H-pteridin-6-one]	> 1 µM	> 1 µM
Cc1ccccc1C(CN1CCCCC1)N1CCN(c2ncnc3c2NC(=O)CN3)CC1 (stereo not drawn) [Compound A47, 4-(4-(2-(piperidin-1-yl)-1-(o-tolyl)ethyl)piperazin-1-yl)-7,8-dihydropteridin-6(5H)-one]	> 1 µM	> 1 µM
NCC(c1ccc(C(F)(F)F)cc1)N1CCN(c2ncnc3c2CCCN3)CC1 (stereo not drawn) [Compound A16, 2-[4-(5,6,7,8-Tetrahydro-pyrido[2,3-d]pyrimidin-4-yl)-piperazin-1-yl]-2-(4-trifluoromethyl-phenyl)-ethylamine]	0.025 to 0.1 µM	0.025 to 0.1 µM
CN(C)CC(c1ccc(Cl)cc1)N1CCN(c2ncnc3c2CCCN3)CC1 (stereo not drawn) [Compound A8, {2-(4-Chlorophenyl)-2-[4-(5,6,7,8-tetrahydro-pyrido[2,3-d]pyrimidin-4-yl)-piperazin-1-yl]-ethyl}-dimethylamine]	0.025 to 0.1 µM	0.101 to 0.5 µM

Results, then the compound that gave them:

IC50 (His-AKT (Full Length))	IC50 [1]	SMILES
> 1 µM	> 1 µM	O=C1CNc2ncnc(N3CCN(C(CN4CCC4)c4ccc(Cl)c(F)c4)CC3)c2N1 (stereo not drawn) [Compound A60, 4-(4-(2-(azetidin-1-yl)-1-(4-chloro-3-fluorophenyl)ethyl)piperazin-1-yl)-7,8-dihydropteridin-6(5H)-one]
> 1 µM	> 1 µM	O=C1CNc2ncnc(N3CCN(C(CN4CCCC4)c4ccc(F)cc4)CC3)c2N1 (stereo not drawn) [Compound A29, 4-{4-[1-(4-fluoro-phenyl)-2-(pyrrolidin-yl)-ethyl]-piperazin-1-yl}-7,8-dihydro-5H-pteridin-6-one]
> 1 µM	> 1 µM	CN(C)CC(c1ccc(F)c(F)c1)N1CCN(c2ncnc3c2NC(=O)CN3)CC1 (stereo not drawn) [Compound A49, 4-(4-(1-(3,4-difluorophenyl)-2-(dimethylamino)ethyl)piperazin-1-yl)-7,8-dihydropteridin-6(5H)-one]
> 1 µM	> 1 µM	O=C1CNc2ncnc(N3CCN(C(CN4CCC4)c4ccccc4F)CC3)c2N1 (stereo not drawn) [Compound A37, 4-(4-(2-(azetidin-1-yl)-1-(2-fluorophenyl)ethyl)piperazin-1-yl)-7,8-dihydropteridin-6(5H)-one]
0.501 to 1 µM	> 1 µM	O=C1CNc2ncnc(N3CCN(C(CN4CCCCC4)c4ccc(Cl)c(F)c4)CC3)c2N1 (stereo not drawn) [Compound A62, 4-(4-(1-(4-chloro-3-fluorophenyl)-2-(piperidin-1-yl)ethyl)piperazin-1-yl)-7,8-dihydropteridin-6(5H)-one]
> 1 µM	> 1 µM	O=C1CNc2ncnc(N3CCN(C(CN4CCCC4)c4ccc(F)c(F)c4)CC3)c2N1 (stereo not drawn) [Compound A52, 4-(4-(1-(3,4-difluorophenyl)-2-(pyrrolidin-1-yl)ethyl)piperazin-1-yl)-7,8-dihydropteridin-6(5H)-one]
> 1 µM	> 1 µM	O=C1CNc2ncnc(N3CCN(C(CN4CCCC4)c4ccc(F)c(Cl)c4)CC3)c2N1 (stereo not drawn) [Compound A56, 4-(4-(1-(3-chloro-4-fluorophenyl)-2-(pyrrolidin-1-yl)ethyl)piperazin-1-yl)-7,8-dihydropteridin-6(5H)-one]
> 1 µM	> 1 µM	O=C1CNc2ncnc(N3CCN(C(CN4CCCCC4)c4ccc(F)c(F)c4)CC3)c2N1 (stereo not drawn) [Compound A53, 4-(4-(1-(3,4-difluorophenyl)-2-(piperidin-1-yl)ethyl)piperazin-1-yl)-7,8-dihydropteridin-6(5H)-one]
> 1 µM	> 1 µM	O=C1CNc2ncnc(N3CCN(C(CN4CCCCC4)c4ccccc4Cl)CC3)c2N1 (stereo not drawn) [Compound A44, 4-(4-(1-(2-chlorophenyl)-2-(piperidin-1-yl)ethyl)piperazin-1-yl)-7,8-dihydropteridin-6(5H)-one]
> 1 µM	> 1 µM	O=C1CNc2ncnc(N3CCN(C(CN4CCCCC4)c4ccccc4F)CC3)c2N1 (stereo not drawn) [Compound A38, 4-(4-(1-(2-fluorophenyl)-2-(piperidin-1-yl)ethyl)piperazin-1-yl)-7,8-dihydropteridin-6(5H)-one]
> 1 µM	> 1 µM	NCC(c1ccc(F)c(F)c1)N1CCN(c2ncnc3c2NC(=O)CN3)CC1 (stereo not drawn) [Compound A48]
